# Legend:
# [1] = test system: esophageal squamous cell carcinoma; experiment: Phase I clinical trial, effectiveness evaluation; assay type: in vivo, human
# Excerpt: ORR: the percentage of subjects with complete remission (CR) and partial remission (PR) among all enrolled subjects from the date of the first dose.
# DCR: defined as the percentage of subjects with CR, PR, or stable disease (SD) among all enrolled subjects from the date of the first dose.
# PR: refers to partial remission, meaning that the sum of the diameters of target lesions has reduced by at least 30% compared to the baseline level.
# (§1) Drug: Compound B, tablets.
# (§2) 1.1 Inclusion criteria: The main criteria include: (1) an age of 18-70 years old (including 18 years old and 70 years old) when signing an informed consent form; (2) patients with histopathologically or cytologically confirmed unresectable locally advanced or metastatic solid tumors, who have failed or are intolerant to standard treatments, or have no standard treatment regimens available as options; (3) the presence of at least one measurable lesion meeting RECIST v1.1 definition; (4) ECOG performance status (PS) score: 0-1; and so on.
# (§3) (1) Dose escalation stage: initial doses: 1 mg, 2 mg, 4 mg, 6 mg, 9 mg, 12 mg, 16 mg, 20 mg, and 25 mg, administered orally once daily. After 7-days single administration stage, 28-days multiple administration stage began (continuous administration, with every 28 days constituting one cycle, until progressive disease or intolerable toxic reactions occurred). The subjects who had completed the treatment and observation for the 7-days single administration stage and the first cycle of the 28-days multiple administration stage, and who had acquired clinical benefit and could tolerate the drug treatment, could enter an extended treatment period based on their willingness. In the extended treatment period, every 4 weeks constituted one cycle.
# (§4) (2) Dose expansion stage: 4 mg and 6 mg, administered orally once daily. For the continuous administration group, every 4 weeks constituted 1 cycle; for the group of 3-week administration and then 1-week interruption, every 4 weeks constituted one cycle; for the group of 2-week administration and then 1-week interruption, every 3 weeks constituted 1 cycle.
# (§5) 1.3 Assessment of results: (1) Effectiveness evaluation: In this study, for the dose escalation stage, efficacy evaluation and data analysis were performed at the 4th week, 8th week and 12th week after the first day of the 28-days multiple administration stage and then every 8 weeks thereafter. […]
# [2] = Water sorption and desorption experiment (DVS hygroscopicity); assay type: physicochemical; conditions: relative humidity 40%-80%, 25° C.
# Protocol: Instrument: DVS Intrinsic Plus (SMS, UK).
# Method: a sample was placed in a tared sample basket, the weight of the sample was automatically measured, and the sample was analyzed according to the parameters in the table below.
# The samples obtained in Example 2 and Example 3 were investigated for sorption and desorption of moisture under the relative humidity of 40%-80% at 25° C. using a dynamic vapor sorption (DVS) instrument to determine the hygroscopicity of various salt forms.
# [3] = Solid stability experiment; assay type: physicochemical; conditions: for Crystalline form: XRPD, initial crystalline form I
# Protocol: The sample obtained in Example 2 was investigated for physical stability and chemical stability under the conditions of 40° C./75% RH (open) and 60° C. (sealed) for 7 days, and for physical stability under the conditions of room temperature/92.5% RH (open) for 10 days.
# Note: the “/” indicates undetected; the crystalline form results were obtained using the X-ray powder diffraction method.
# [4] = Grinding stability experiment; assay type: physicochemical; conditions: XRPD
# [5] = Solubility experiment; conditions: for Solubility: deionized water, 25° C.
# [6] = test system: pulmonary squamous cell carcinoma; experiment: Phase I clinical trial, effectiveness evaluation; assay type: in vivo, human
# Excerpt: as §1, §2, §3, §4
# (§6) 1.3 Assessment of results: (1) Effectiveness evaluation: In this study, for the dose escalation stage, efficacy evaluation and data analysis were performed at the 4th week, 8th week and 12th week after the first day of the 28-days multiple administration stage and then every 8 weeks thereafter. For the dose expansion stage, efficacy evaluation on the group of 3-week administration and then 1-week interruption was performed at the 4th week, 8th week and 12th week after the first day of the 28-days multiple administration stage and then every 8 weeks thereafter; efficacy evaluation on the group of 2-week administration and then 1-week interruption was performed every 6 weeks after the first day of the 28-days multiple administration stage. The indicators of effectiveness include objective response rate (ORR), progression-free survival (PFS), overall survival (OS), disease control rate (DCR), and duration of response (DOR). (2) Safety evaluation: including evaluation of vital signs and physical examinations, electrocardiograms, ECOG PS scores, laboratory tests, adverse events, and the like.
# [7] = test system: nasopharyngeal squamous cell carcinoma; experiment: Phase I clinical trial, effectiveness evaluation; assay type: in vivo, human
# Excerpt: as §1, §2, §3, §4, §6
# [8] = Phase I clinical trial, safety evaluation; assay type: in vivo, human; conditions: monotherapy, patients with solid tumors
# Excerpt: as §1, §2, §3, §4, §5
# [9] = of 41 patients with esophageal squamous cell carcinoma
# [10] = 40° C./75% RH (open) for 7 days
compound,measurement,setting,value
CNC(=O)c1cccc2cc(Oc3ccnc(NC(=O)c4ccc(N5C[C@@H](C)N[C@@H](C)C5)cc4)c3)ccc12 [Compound B],Response as of the latest assessment,"[1]; Subject S03008, 6 mg QD continuous, in the 18th treatment cycle",remains in PR
same,Cases achieving PR,[1]; [9],6 cases
same,Cases achieving SD,[1]; [9],21 cases
same,Cases of SD showing target lesion reduction,[1]; of 41 patients with esophageal squamous cell carcinoma (21 SD),11 cases
same,Hygroscopicity,[2],0.65%
same,Hygroscopicity (words),[2],slightly hygroscopic
same,Purity,[3]; [10],99.86%
same,Crystalline form,[3]; [10],Not changed
same,Chemical stability,[3]; 40° C./75% RH and 60° C. for 7 days,good chemical stability
same,Physical stability of crystalline form I,"[3]; 40° C./75% RH, 60° C. for 7 days, 92.5% RH for 10 days",good physical stability
same,Purity,[3]; 60° C. (sealed) for 7 days,99.85%
same,Crystalline form,[3]; 60° C. (sealed) for 7 days,Not changed
same,Purity,"[3]; initial state, 0 day",99.85%
same,Crystalline form,[3]; room temperature/92.5% RH (open) for 10 days,Not changed
same,Crystalline form I after grinding,"[4]; mechanically ground after dropwise addition of organic solvent (methanol, ethanol, acetone, acetonitrile, ethyl acetate, etc.)",not changed
same,Crystalline form I after grinding,[4]; mechanically ground using a mortar for 2 min,not changed
same,Crystalline form I after grinding,[4]; mechanically ground using a mortar for 5 min,not changed
same,Solubility in buffer compared to compound A,[5]; Na2HPO4-citric acid buffer (pH 4.6),better solubility in the buffer compared to compound A
same,Target lesion reduction among SD cases,[6]; 4 SD cases of 5 patients with pulmonary squamous cell carcinoma,all of which showed target lesion reduction
same,Maximum reduction in the target lesion,"[6]; Subject S09009, stage IV, 4 mg QD continuous",10.7%
same,Cases achieving SD,[6]; of 5 patients with pulmonary squamous cell carcinoma,4 cases
same,Target lesion reduction in SD case,[7]; 1 SD case of 2 patients with nasopharyngeal squamous cell carcinoma,also showed target lesion reduction
same,Maximum reduction in the target lesion,"[7]; Subject S01001, stage IV, 2 mg (dose escalation) QD",7.9%
same,Cases achieving SD,[7]; of 2 patients with nasopharyngeal squamous cell carcinoma,1 case
same,Common (≥10%) adverse effects,[8],"proteinuria, hypertension, hypoalbuminemia, decreased platelet count, decreased leukocyte count, increased alanine aminotransferase, increased aspartate aminotransferase, hyperuricemia, rash, anemia and fatigue"
same,Overall safety,[8],overall safe and controllable
same,Severity of most adverse effects,[8],grade 2 or below
Fumarate,Hygroscopicity,[2],2.11. %
same,Solubility,[5],1300 µg/mL
Maleate,Hygroscopicity,[2],0.81%
same,Hygroscopicity (words),[2],slightly hygroscopic
same,Solubility,[5],2000 µg/mL
Phosphate,Hygroscopicity,[2],3.75%
same,Solubility,[5],3500 µg/mL
Tartrate,Hygroscopicity,[2],2.86%
